From patent US9790178B2, “Pyrrolidinyl urea, thiourea, guanidine and cyanoguanidine compounds as TrkA kinase inhibitors” (Array BioPharma Inc., priority 2012, dated 2017)

Columns and labels:
Assay in all cases: KinaseProfiler off-target kinase profiling
Format in all cases: biochemical
Details in all cases: 10 μM, ATP near Km
AKT1 = molecular target: T1, AKT1 (Homo sapiens, UniProt P31749)
T1 construct: purchased Millipore, Inc. (KinaseProfiler service)
Protocol: (§1) A representative compound of the invention (Example 20) was tested for off-target kinase activity at a concentration of 10 μM by Millipore, Inc. in their KinaseProfiler™ service against all the kinases available in their full kinase panel. The compound was run in duplicate at a concentration of ATP near the Km for each individual kinase according to Millipore's specifications. The results are shown in Table B. Data are reported as percent of control (POC) and are the average of the two replicates.

AURKA = molecular target: T2, AURKA (Homo sapiens, UniProt O14965)
T2 construct: purchased Millipore, Inc. (KinaseProfiler service)
Protocol: as §1

CDK3/cyclinE = molecular target: T3, CDK3/cyclinE (Homo sapiens, UniProt Q00526)
T3 construct: purchased Millipore, Inc. (KinaseProfiler service)
Protocol: as §1

CHK1 = molecular target: T4, CHK1 (Homo sapiens, UniProt O14757)
T4 construct: purchased Millipore, Inc. (KinaseProfiler service)
Protocol: as §1

DDR2 = molecular target: T5, DDR2 (Homo sapiens, UniProt Q16832)
T5 construct: purchased Millipore, Inc. (KinaseProfiler service)
Protocol: as §1

EphA5 = molecular target: T6, EphA5 (Homo sapiens, UniProt P54756)
T6 construct: purchased Millipore, Inc. (KinaseProfiler service)
Protocol: as §1

FGFR2 = molecular target: T7, FGFR2 (Homo sapiens, UniProt P21802)
T7 construct: purchased Millipore, Inc. (KinaseProfiler service)
Protocol: as §1

Fes = molecular target: T8, Fes (Homo sapiens, UniProt P07332)
T8 construct: purchased Millipore, Inc. (KinaseProfiler service)
Protocol: as §1

Flt4 = molecular target: T9, Flt4 (Homo sapiens, UniProt P35916)
T9 construct: purchased Millipore, Inc. (KinaseProfiler service)
Protocol: as §1

GRK5 = molecular target: T10, GRK5 (Homo sapiens, UniProt P34947)
T10 construct: purchased Millipore, Inc. (KinaseProfiler service)
Protocol: as §1

Haspin = molecular target: T11, Haspin (Homo sapiens, UniProt Q8TF76)
T11 construct: purchased Millipore, Inc. (KinaseProfiler service)
Protocol: as §1

Hck = molecular target: T12, Hck (Homo sapiens, UniProt P08631)
T12 construct: purchased Millipore, Inc. (KinaseProfiler service)
Protocol: as §1

IKKbeta = molecular target: T13, IKKbeta (Homo sapiens, UniProt O14920)
T13 construct: purchased Millipore, Inc. (KinaseProfiler service)
Protocol: as §1

IRR = molecular target: T14, IRR (Homo sapiens, UniProt P14616)
T14 construct: purchased Millipore, Inc. (KinaseProfiler service)
Protocol: as §1

JNK1alpha1 = molecular target: T15, JNK1alpha1 (Homo sapiens, UniProt P45983)
T15 construct: purchased Millipore, Inc. (KinaseProfiler service)
Protocol: as §1

JNK3 = molecular target: T16, JNK3 (Homo sapiens, UniProt P53779)
T16 construct: purchased Millipore, Inc. (KinaseProfiler service)
Protocol: as §1

KIT = molecular target: T17, KIT (Homo sapiens, UniProt P10721)
T17 construct: purchased Millipore, Inc. (KinaseProfiler service)
Protocol: as §1

LIMK1 = molecular target: T18, LIMK1 (Homo sapiens, UniProt P53667)
T18 construct: purchased Millipore, Inc. (KinaseProfiler service)
Protocol: as §1

MAP3K5 = molecular target: T19, MAP3K5 (Homo sapiens, UniProt Q99683)
T19 construct: purchased Millipore, Inc. (KinaseProfiler service)
Protocol: as §1

MAPKAP-K2 = molecular target: T20, MAPKAP-K2 (Homo sapiens, UniProt P49137)
T20 construct: purchased Millipore, Inc. (KinaseProfiler service)
Protocol: as §1

MARK1 = molecular target: T21, MARK1 (Homo sapiens, UniProt Q9P0L2)
T21 construct: purchased Millipore, Inc. (KinaseProfiler service)
Protocol: as §1

MEK1 = molecular target: T22, MEK1 (Homo sapiens, UniProt Q02750)
T22 construct: purchased Millipore, Inc. (KinaseProfiler service)
Protocol: as §1

MKK6 = molecular target: T23, MKK6 (Homo sapiens, UniProt P52564)
T23 construct: purchased Millipore, Inc. (KinaseProfiler service)
Protocol: as §1

MKNK2 = molecular target: T24, MKNK2 (Homo sapiens, UniProt Q9HBH9)
T24 construct: purchased Millipore, Inc. (KinaseProfiler service)
Protocol: as §1

MST3 = molecular target: T25, MST3 (Homo sapiens, UniProt Q9Y6E0)
T25 construct: purchased Millipore, Inc. (KinaseProfiler service)
Protocol: as §1

MYLK = molecular target: T26, MYLK (Homo sapiens, UniProt Q15746)
T26 construct: purchased Millipore, Inc. (KinaseProfiler service)
Protocol: as §1

Mer = molecular target: T27, Mer (Homo sapiens, UniProt Q12866)
T27 construct: purchased Millipore, Inc. (KinaseProfiler service)
Protocol: as §1

NEK3 = molecular target: T28, NEK3 (Homo sapiens, UniProt P51956)
T28 construct: purchased Millipore, Inc. (KinaseProfiler service)
Protocol: as §1

PAK4 = molecular target: T29, PAK4 (Homo sapiens, UniProt O96013)
T29 construct: purchased Millipore, Inc. (KinaseProfiler service)
Protocol: as §1

PDGFRalpha = molecular target: T30, PDGFRalpha (Homo sapiens, UniProt P16234)
T30 construct: purchased Millipore, Inc. (KinaseProfiler service)
Protocol: as §1

PKCalpha = molecular target: T31, PKCalpha (Homo sapiens, UniProt P17252)
T31 construct: purchased Millipore, Inc. (KinaseProfiler service)
Protocol: as §1

PKCepsilon = molecular target: T32, PKCepsilon (Homo sapiens, UniProt Q02156)
T32 construct: purchased Millipore, Inc. (KinaseProfiler service)
Protocol: as §1

PKCtheta = molecular target: T33, PKCtheta (Homo sapiens, UniProt Q04759)
T33 construct: purchased Millipore (KinaseProfiler service)
Protocol: as §1

PRKG1beta = molecular target: T34, PRKG1beta (Homo sapiens, UniProt Q13976)
T34 construct: purchased Millipore (KinaseProfiler service)
Protocol: as §1

PhKgamma2 = molecular target: T35, PhKgamma2 (Homo sapiens, UniProt P15735)
T35 construct: purchased Millipore, Inc. (KinaseProfiler service)
Protocol: as §1

SGK1 = molecular target: T36, SGK1 (Homo sapiens, UniProt O00141, S422D)
T36 construct: purchased Millipore, Inc. (KinaseProfiler service)
Protocol: as §1

SGK3 = molecular target: T37, SGK3 (Homo sapiens, UniProt Q96BR1)
T37 construct: purchased Millipore, Inc. (KinaseProfiler service)
Protocol: as §1

TBK1 = molecular target: T38, TBK1 (Homo sapiens, UniProt Q9UHD2)
T38 construct: purchased Millipore, Inc. (KinaseProfiler service)
Protocol: as §1

TSSK2 = molecular target: T39, TSSK2 (Homo sapiens, UniProt Q96PF2)
T39 construct: purchased Millipore, Inc. (KinaseProfiler service)
Protocol: as §1

TrkA = molecular target: T40, TrkA (Homo sapiens, UniProt P04629)
T40 construct: purchased Millipore, Inc. (KinaseProfiler service)
Protocol: as §1

WNK2 = molecular target: T41, WNK2 (Homo sapiens, UniProt Q9Y3S1)
T41 construct: purchased Millipore, Inc. (KinaseProfiler service)
Protocol: as §1

T26 sequence (Q15746 whole entry): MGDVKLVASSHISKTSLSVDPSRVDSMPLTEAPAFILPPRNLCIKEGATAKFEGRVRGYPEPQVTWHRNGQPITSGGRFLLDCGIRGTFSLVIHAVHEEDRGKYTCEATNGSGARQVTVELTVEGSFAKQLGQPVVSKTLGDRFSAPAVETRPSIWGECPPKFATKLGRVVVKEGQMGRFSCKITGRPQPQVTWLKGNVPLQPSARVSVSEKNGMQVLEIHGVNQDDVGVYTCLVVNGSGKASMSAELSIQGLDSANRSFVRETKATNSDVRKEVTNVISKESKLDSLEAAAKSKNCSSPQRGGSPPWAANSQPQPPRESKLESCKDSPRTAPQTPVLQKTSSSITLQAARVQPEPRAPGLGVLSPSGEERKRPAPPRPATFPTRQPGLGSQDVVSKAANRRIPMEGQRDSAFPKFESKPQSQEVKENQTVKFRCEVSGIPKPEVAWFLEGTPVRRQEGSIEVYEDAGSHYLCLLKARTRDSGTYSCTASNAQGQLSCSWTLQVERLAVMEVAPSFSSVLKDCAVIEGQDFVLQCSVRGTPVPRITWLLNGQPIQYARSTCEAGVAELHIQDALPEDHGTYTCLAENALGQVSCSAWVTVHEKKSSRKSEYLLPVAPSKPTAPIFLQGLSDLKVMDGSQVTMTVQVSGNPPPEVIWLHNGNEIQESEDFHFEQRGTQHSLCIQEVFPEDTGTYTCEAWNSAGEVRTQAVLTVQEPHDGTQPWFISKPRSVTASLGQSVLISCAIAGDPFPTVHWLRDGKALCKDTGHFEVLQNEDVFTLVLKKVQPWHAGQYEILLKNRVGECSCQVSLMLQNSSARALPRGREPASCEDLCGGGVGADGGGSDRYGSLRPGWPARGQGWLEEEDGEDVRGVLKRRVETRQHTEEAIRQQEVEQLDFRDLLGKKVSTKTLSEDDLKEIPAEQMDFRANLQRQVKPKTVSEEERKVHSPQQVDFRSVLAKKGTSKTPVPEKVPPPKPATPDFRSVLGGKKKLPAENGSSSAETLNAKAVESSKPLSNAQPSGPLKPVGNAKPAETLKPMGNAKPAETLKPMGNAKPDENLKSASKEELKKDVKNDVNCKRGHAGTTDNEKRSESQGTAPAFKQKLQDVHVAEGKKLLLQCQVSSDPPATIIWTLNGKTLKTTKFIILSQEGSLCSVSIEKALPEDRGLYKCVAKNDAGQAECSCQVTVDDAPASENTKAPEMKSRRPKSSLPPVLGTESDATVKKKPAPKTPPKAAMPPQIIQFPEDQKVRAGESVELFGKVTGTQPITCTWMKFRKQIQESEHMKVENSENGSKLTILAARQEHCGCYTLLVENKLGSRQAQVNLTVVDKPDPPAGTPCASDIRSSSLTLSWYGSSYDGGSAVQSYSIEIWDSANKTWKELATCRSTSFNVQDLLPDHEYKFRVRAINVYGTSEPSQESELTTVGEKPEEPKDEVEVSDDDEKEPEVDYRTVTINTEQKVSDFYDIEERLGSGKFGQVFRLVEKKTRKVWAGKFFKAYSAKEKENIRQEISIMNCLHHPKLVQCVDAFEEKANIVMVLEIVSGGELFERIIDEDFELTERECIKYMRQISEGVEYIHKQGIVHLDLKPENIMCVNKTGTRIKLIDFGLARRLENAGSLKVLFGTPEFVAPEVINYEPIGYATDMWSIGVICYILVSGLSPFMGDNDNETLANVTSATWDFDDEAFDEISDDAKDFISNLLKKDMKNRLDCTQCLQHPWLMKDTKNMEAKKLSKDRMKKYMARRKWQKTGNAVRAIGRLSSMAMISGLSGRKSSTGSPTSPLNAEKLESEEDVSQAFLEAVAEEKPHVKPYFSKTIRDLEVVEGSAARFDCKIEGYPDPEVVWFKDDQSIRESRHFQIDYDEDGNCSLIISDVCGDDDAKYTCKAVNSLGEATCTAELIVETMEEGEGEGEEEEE
T4 sequence (O14757 whole entry): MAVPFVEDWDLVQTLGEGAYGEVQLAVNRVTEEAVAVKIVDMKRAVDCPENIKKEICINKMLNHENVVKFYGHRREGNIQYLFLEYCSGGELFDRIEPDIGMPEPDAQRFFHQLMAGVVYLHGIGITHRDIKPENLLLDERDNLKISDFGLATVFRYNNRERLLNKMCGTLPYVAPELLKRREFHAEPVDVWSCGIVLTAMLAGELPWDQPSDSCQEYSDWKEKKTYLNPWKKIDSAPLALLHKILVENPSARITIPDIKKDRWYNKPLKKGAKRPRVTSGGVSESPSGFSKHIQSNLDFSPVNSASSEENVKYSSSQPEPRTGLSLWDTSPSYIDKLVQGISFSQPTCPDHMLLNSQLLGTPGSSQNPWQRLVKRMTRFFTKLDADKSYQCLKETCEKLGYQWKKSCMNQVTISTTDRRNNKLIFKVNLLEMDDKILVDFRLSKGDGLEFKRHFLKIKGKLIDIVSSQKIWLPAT
T28 sequence (P51956 whole entry): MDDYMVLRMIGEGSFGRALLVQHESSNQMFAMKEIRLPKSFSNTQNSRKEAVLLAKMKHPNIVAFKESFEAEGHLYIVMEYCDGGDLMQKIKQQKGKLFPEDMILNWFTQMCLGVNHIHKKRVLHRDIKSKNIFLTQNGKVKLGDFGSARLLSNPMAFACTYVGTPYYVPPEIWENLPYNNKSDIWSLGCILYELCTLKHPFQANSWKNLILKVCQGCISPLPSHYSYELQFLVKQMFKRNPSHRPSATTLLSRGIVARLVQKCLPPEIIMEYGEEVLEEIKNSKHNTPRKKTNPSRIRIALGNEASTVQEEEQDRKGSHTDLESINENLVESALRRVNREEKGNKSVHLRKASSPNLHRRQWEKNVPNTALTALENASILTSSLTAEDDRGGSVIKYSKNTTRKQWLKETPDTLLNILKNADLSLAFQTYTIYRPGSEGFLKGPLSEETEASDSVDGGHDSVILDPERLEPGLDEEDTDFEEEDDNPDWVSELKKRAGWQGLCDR
T37 sequence (Q96BR1 whole entry): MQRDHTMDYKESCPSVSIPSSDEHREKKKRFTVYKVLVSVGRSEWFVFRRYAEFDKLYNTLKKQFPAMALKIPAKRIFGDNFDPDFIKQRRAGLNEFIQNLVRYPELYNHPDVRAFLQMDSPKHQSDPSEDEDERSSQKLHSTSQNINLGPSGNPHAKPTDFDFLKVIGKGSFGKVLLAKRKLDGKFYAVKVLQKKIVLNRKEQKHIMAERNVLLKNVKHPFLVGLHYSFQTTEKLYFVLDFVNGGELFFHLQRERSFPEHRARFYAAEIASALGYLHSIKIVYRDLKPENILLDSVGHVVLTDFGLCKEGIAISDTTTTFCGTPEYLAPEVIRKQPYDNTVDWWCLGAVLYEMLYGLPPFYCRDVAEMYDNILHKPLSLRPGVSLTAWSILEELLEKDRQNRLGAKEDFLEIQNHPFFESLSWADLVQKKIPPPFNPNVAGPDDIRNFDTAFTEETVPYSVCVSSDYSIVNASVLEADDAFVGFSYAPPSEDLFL
T17 sequence (P10721 26-976): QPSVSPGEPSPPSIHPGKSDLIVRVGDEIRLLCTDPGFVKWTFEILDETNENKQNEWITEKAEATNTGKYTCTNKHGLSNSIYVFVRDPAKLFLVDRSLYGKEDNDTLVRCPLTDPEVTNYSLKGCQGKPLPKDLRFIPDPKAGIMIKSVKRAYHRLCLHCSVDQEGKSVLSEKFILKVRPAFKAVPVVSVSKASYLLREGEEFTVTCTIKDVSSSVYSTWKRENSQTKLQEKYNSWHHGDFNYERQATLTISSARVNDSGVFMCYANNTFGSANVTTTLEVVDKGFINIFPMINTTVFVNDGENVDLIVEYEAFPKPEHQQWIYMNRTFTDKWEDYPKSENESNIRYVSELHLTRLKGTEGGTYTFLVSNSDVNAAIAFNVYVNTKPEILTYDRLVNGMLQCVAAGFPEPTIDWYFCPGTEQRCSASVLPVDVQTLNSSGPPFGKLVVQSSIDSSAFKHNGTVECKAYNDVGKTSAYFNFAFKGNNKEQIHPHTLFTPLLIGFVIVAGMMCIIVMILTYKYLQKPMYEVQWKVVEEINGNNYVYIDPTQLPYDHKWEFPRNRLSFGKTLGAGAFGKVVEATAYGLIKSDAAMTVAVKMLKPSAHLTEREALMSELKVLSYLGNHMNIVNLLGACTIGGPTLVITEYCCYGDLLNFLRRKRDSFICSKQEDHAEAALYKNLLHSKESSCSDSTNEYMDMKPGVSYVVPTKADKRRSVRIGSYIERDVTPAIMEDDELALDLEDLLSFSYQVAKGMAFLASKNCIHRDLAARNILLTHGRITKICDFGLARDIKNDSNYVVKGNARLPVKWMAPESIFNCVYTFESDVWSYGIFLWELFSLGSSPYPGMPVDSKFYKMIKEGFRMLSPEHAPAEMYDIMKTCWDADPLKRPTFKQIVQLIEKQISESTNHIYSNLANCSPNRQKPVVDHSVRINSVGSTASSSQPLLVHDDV

- Avg. POC (AKT1): 109 POC
- Avg. POC (AURKA): 118 POC
- Avg. POC (CDK3/cyclinE): 111 POC
- Avg. POC (CHK1): 103.5 POC
- Avg. POC (DDR2): 106 POC
- Avg. POC (EphA5): 123 POC
- Avg. POC (FGFR2): 106 POC
- Avg. POC (Fes): 113.5 POC
- Avg. POC (Flt4): 110.5 POC
- Avg. POC (GRK5): 108 POC
- Avg. POC (Haspin): 93.5 POC
- Avg. POC (Hck): 110 POC
- Avg. POC (IKKbeta): 107.5 POC
- Avg. POC (IRR): 96 POC
- Avg. POC (JNK1alpha1): 105 POC
- Avg. POC (JNK3): 124.5 POC
- Avg. POC (KIT): 117.5 POC
- Avg. POC (LIMK1): 103 POC
- Avg. POC (MAP3K5): 88 POC
- Avg. POC (MAPKAP-K2): 106.5 POC
- Avg. POC (MARK1): 103.5 POC
- Avg. POC (MEK1): 111 POC
- Avg. POC (MKK6): 83 POC
- Avg. POC (MKNK2): 103 POC
- Avg. POC (MST3): 104 POC
- Avg. POC (MYLK): 110 POC
- Avg. POC (Mer): 116.5 POC
- Avg. POC (NEK3): 103 POC
- Avg. POC (PAK4): 97.5 POC
- Avg. POC (PDGFRalpha): 105.5 POC
- Avg. POC (PKCalpha): 103.5 POC
- Avg. POC (PKCepsilon): 107.5 POC
- Avg. POC (PKCtheta): 111.5 POC
- Avg. POC (PRKG1beta): 124 POC
- Avg. POC (PhKgamma2): 98.5 POC
- Avg. POC (SGK1): 119 POC
- Avg. POC (SGK3): 109 POC
- Avg. POC (TBK1): 114 POC
- Avg. POC (TSSK2): 106 POC
- Avg. POC (TrkA): 0 POC
- Avg. POC (WNK2): 120 POC
Compound: COCCN1C[C@@H](NC(=O)Nc2c(-c3ccccc3)nc3c(C)nccn23)[C@H](c2ccc(F)c(F)c2)C1 [Example 20, 1-((3S,4R)-4-(3,4-difluorophenyl)-1-(2-methoxyethyl)pyrrolidin-3-yl)-3-(8-methyl-2-phenylimidazo[1,2-a]pyrazin-3-yl)urea]
